# From patent publication US12091431B2, “Crystals” (AEROMICS, INC., priority 2016, dated 2024)
# Read-outs that look alike come from different tables or passages of the source.
# Assays:
# Assay type in all cases: physicochemical
# [1] = Dynamic vapor sorption (DVS); details: for weight change upon desorption: DVS desorption after sorption to 95% RH; for XRPD of the post-DVS material (form change): after DVS sorption/desorption cycle; for hygroscopicity, weight gain from 5-95% RH: summary statement
# Method: Dynamic vapor sorption (DVS) data are collected on a VTI SGA-100 Vapor Sorption Analyzer. NaCl and PVP are used as calibration standards. Samples are not dried prior to analysis. Sorption and desorption data are collected over a range from 5% to 95% relative humidity (RH) at 10% RH increments under a nitrogen purge. The equilibrium criterion used for analysis is less than 0.0100% weight change in 5 minutes with a maximum equilibration time of 3 hours. Data are not corrected for the initial moisture content of the samples.
# Solubility in water = assay: Solubility in water
# [2] = Hydrolysis in the solid state; details: reversion to N-[3,5-bis(trifluoromethyl)phenyl]-5-chloro-2-hydroxybenzamide
# [3] = Stressing at elevated relative humidity; details: ~97% RH for 7 days
# Method: The kinetic and thermodynamic hygroscopicity of Form A is assessed by DVS and stressing at elevated RH, respectively.
# [4] = Slurry in water at room temperature, form by XRPD
# Method: The slurry is repeated for 19 hours to gauge how quickly the conversion occurs and results again in Form N, indicating form conversion within 19 hours (starting material is the product from this example and from Example 21).
# [5] = Vacuum drying attempts of Form A
# Method: Several attempts to dry Form A are tried. Rigorous conditions are initially selected due to the high temperature range at which the TGA weight loss is observed (above 90° C.). Drying under vacuum at 80° C. for 1 day results in brown solids stuck to the vial.
# A drying attempt under milder conditions is attempted. The experiment begins by drying under vacuum at ambient temperature. […] Minor weight loss is noted after 6 hours at 63-65° C., so the sample is held in the vacuum oven at this temperature for 1 day, resulting in 11% gravimetric weight loss.
smiles,measurement,setting,value
"O=C(Nc1cc(C(F)(F)F)cc(C(F)(F)F)c1)c1cc(Cl)ccc1OP(=O)(O)O [Form N, 2-{[3,5-bis(trifluoromethyl)phenyl]carbamoyl}-4-chlorophenyl dihydrogen phosphate hydrate]",weight change upon desorption,[1],All of this weight is lost
same,weight gain upon sorption from 5% to 95% relative humidity,"[1]; DVS sorption, 5% to 95% RH, phosphate hydrate",3 weight %
same,weight loss upon equilibration to 5% relative humidity,"[1]; DVS, initial equilibration to 5% RH, residual water likely",30%
same,XRPD of the post-DVS material (form change),[1]; phosphate hydrate,no form change
same,"hygroscopicity, weight gain from 5-95% RH","[1]; DVS, phosphate hydrate",~3%
"O=C(Nc1cc(C(F)(F)F)cc(C(F)(F)F)c1)c1cc(Cl)ccc1OP(=O)([O-])[O-].[Na+].[Na+] [bis sodium salt, 2-((3,5-bis(trifluoromethyl)phenyl)carbamoyl)-4-chlorophenyl phosphate bis sodium salt]",solubility,"Solubility in water; pH 8.5 water, pH 8.5, aqueous buffer, read-out: solubility in pH 8.5 water",20 mg/mL
same,hydrolysis in the solid state,[2],1 % per day
"O=C(Nc1cc(C(F)(F)F)cc(C(F)(F)F)c1)c1cc(Cl)ccc1O [N-[3,5-bis(trifluoromethyl)phenyl]-5-chloro-2-hydroxybenzamide]",solubility,"Solubility in water; water, read-out: solubility in water",0.003 mg/mL
"NCCO.NCCO.O=C(Nc1cc(C(F)(F)F)cc(C(F)(F)F)c1)c1cc(Cl)ccc1OP(=O)(O)O [bis ethanolamine salt, 2-((3,5-bis(trifluoromethyl)phenyl)carbamoyl)-4-chlorophenyl phosphate bis ethanolamine salt]",hydrolysis in the solid state,[2],1 % per day
"O=C(Nc1cc(C(F)(F)F)cc(C(F)(F)F)c1)c1cc(Cl)ccc1OP(=O)([O-])O.[Na+] [mono sodium salt, 2-((3,5-bis(trifluoromethyl)phenyl)carbamoyl)-4-chlorophenyl hydrogen phosphate mono sodium salt]",hydrolysis in the solid state,[2],1 % per day
"O=C(Nc1cc(C(F)(F)F)cc(C(F)(F)F)c1)c1cc(Cl)ccc1OP(=O)(O)O [Form B, 2-{[3,5-bis(trifluoromethyl)phenyl]carbamoyl}-4-chlorophenyl dihydrogen phosphate]",form after stressing at elevated relative humidity,[3],partial conversion to Form N
same,weight change upon desorption,[1],All of this weight is lost
same,weight gain upon sorption from 5% to 95% relative humidity,"[1]; DVS sorption, 5% to 95% RH",0.6 weight %
same,weight loss at 5% relative humidity,"[1]; DVS, 5% RH",0.04 weight %
same,XRPD of the post-DVS material (form change),[1],no form change
same,"hygroscopicity, weight gain from 5-95% RH",[1]; DVS,~0.6%
same,time for form conversion to Form N in water slurry,[4],≤ 19 h
same,form after slurrying with water,"[4]; 7 days, vacuum filtered",converts to Form N
"O=C(Nc1cc(C(F)(F)F)cc(C(F)(F)F)c1)c1cc(Cl)ccc1OP(=O)(O)O [Form A, 2-{[3,5-bis(trifluoromethyl)phenyl]carbamoyl}-4-chlorophenyl dihydrogen phosphate ethyl acetate solvate]",form after stressing at elevated relative humidity,[3],form change to a mixture of materials with a minor Form N (hydrate) component
same,weight loss upon desorption between 95% and 5% RH,"[1]; DVS desorption, 95% to 5% RH",8.73%
same,moisture uptake between 5% and 95% RH,"[1]; DVS sorption, 5% to 95% RH",6.07 wt %
same,weight gain 5%-75% RH,"[1]; DVS sorption, 5%-75% RH",1.65%
same,weight gain 75%-95% RH,"[1]; DVS sorption, 75%-95% RH",4.42%
same,weight loss upon equilibration at 5% RH,"[1]; DVS, initial equilibration at 5% RH",0.76 wt %
same,XRPD of the post-DVS material (form change),[1],change to a disordered unknown material
same,"hygroscopicity, weight gain from 5-95% RH",[1]; DVS,~6%
same,gravimetric weight loss on drying,[5]; under vacuum at 80° C. for 1 day,30%
same,gravimetric weight loss on drying,[5]; vacuum oven at 63-65° C. for 1 day,11%
same,outcome of vacuum drying at elevated temperature,"[5]; vacuum, elevated temperature",decomposition and collapse of the crystalline structure
